In US20210352900A1, “Method for Controlling PPO Resistant Weeds” (BASF SE, priority 2016, published 2021):

Test system: Amaranthus tuberculatus (AMATU, tall waterhemp), PPO resistant biotype 2 containing the ΔG210 mutation (w.3)
Format: in vivo
Conditions: azafenidin: in comparison to sensitive biotypes

## CCc1ccc(COc2ccc(-n3c(=O)cc(C(F)(F)F)n(C)c3=O)cc2)c(OC(C)C(=O)OC)c1 (centres unmarked) [(I).1, benzfendizone]
  activity on / control of resistant weeds containing the ΔG210 mutation (w.3), in words: very good activity

## C#CCOc1cc(-n2nc3n(c2=O)CCCC3)c(Cl)cc1Cl [azafenidin, reference compound]
  activity on / control of resistant weeds containing the ΔG210 mutation (w.3), in words: much weaker control
